# From patent US11957668B2, “Kinase mutation-associated neurodegenerative disorders” (MEMORIAL SLOAN KETTERING CANCER CENTER, priority 2017, dated 2024)
# Assays:
# YFP+ microglia = test: Protein-level expression of inflammatory and adhesion markers in YFP+ microglia and spinal cord (flow cytometry, immunostaining, Bioplex); assay type: in vivo, mouse; settings: BRAF^VE mice, following PLX4720 treatment
# Protocol: Preparation of cell suspensions, flow cytometry and cell sorting. Pregnant females were killed by exposure to CO2. Embryos were removed from the uterus, washed in 4° C. phosphate-buffered saline (PBS, Invitrogen) and dissected under a Leica M80 microscope. For blood phenotyping of adult mice, mice were anaesthetized and blood was collected by cardiac puncture. Bone marrow was collected by flushing one leg with 5 ml RPMI (Invitrogen). For flow cytometry experiments, organs were incubated in PBS containing 1 mg/ml collagenase D (Roche), 100 U/ml DNase I (Sigma), 2.4 mg/ml of dispase (Invitrogen) and 3% FCS (Invitrogen) at 37° C. for 30 min prior to mechanical disruption. For embryonic tissue incubation time at 37° C. was reduced to 20 min. For cell sorting, tissues were digested for 30 min at RT in PBS containing 2 mg/ml of collagenase D (Roche), 200 U/ml DNase I (Sigma), 4.8 mg/ml of dispase (Invitrogen), 3% FCS (Invitrogen) and 1 uM of flavopiridol (Sigma) followed by mechanical disruption under a 100 um filter. Cell suspensions were centrifuged at 320 g for 7 min, resuspended in FACS buffer (PBS, 0.5% BSA and 2 mm EDTA) containing purified anti-CD16/32 (1:100 dilution) and 5% normal mouse, 5% normal rat and 5% normal rabbit serum and incubated for 15 min at 4° C. […] For FMO (fluorescence minus one), brain cell suspensions from BRAF^WT and BRAF^VE mice were mixed prior to staining. […]
# [1] = test system: Csf1r^MeriCreMer; BRAF^V600E; Rosa26^LSL-YFP mice
# Protocol: Mice. […] Genotyping was performed according to protocols described previously for Csf1r^iCre Csf1r^MeriCreMer, CD11^Cre and BRAF^LSL-V600E mice. Cre recombination in Csf1r^MeriCreMer; Rosa26^LSL-YFP; BRAF^LSL-V600E embryos was induced by single injection at E8.5 of 37.5 mg per kg (body weight) of 4-hydroxytamoxifen (OH-TAM, Sigma) into pregnant females. OH-TAM was supplemented with 18.75 mg per kg (body weight) progesterone (Sigma) to counteract the mixed oestrogen agonist effects of tamoxifen, which can result in fetal abortions. Embryonic development was estimated considering the day of vaginal plug formation as 0.5 dpc. […] BRAF^WT and BRAF^VE male and female littermates were assigned randomly into the control or treated group. Scoring of mice was performed blinded and at least weekly by assessing hindlimb reflexes and other behavioral phenotypes such as axial rolling. The investigators were not blinded to allocation during experiments and outcome assessment.
# Footprint analysis. Mice were given two trials to run down a runway before the experiment. Mouse forepaws and hindpaws were painted with red and blue ink, respectively. Mice were then allowed to run down a runway lined with white paper. At least four steps from the middle portion of each run were measured for (1) overlap between forepaw and hindpaw placement, (2) stride length, (3) front-base width (the distance between the right and left forelimb strides), and (4) hind-base width (the distance between the right and left hindlimb strides). Mean values were used for graphs and statistical analyses.
# As a readout, hind limb clasping reflexes were examined every week and footprint assays were performed as described above before treatment and every 4 weeks during treatment.
# To determine the potential effects of BRAF^V600E macrophage clones in adult tissues, a large cohort (n=155) of BRAF^VE mice and littermate controls were analyzed.
compound,measurement,setting,value
CCCS(=O)(=O)Nc1ccc(F)c(C(=O)c2c[nH]c3ncc(Cl)cc23)c1F [PLX4720],"expression of Dectin-1 (Clec7a), LFA-1 (CD11a), VLA-4 (CD49d), the Pdgf receptor, Il1b, and Il17a at the protein level",YFP+ microglia,decrease
same,onset of neurologic disease (cumulative incidence of the ataxic phenotype),"[1]; PLX4720-impregnated chow 417 mg/kg from 3 months of age, preliminary, small group",delays but does not totally prevent the onset of neurologic disease
same,disease progression,[1]; ad libitum PLX4720 diet started at one or three months of age,mitigated disease progression in both cases
same,BRAF^VE mice alive,"[1]; by 9 months of age, PLX4720 diet",80%
same,average clinical score,"[1]; by 9 months of age, PLX4720 diet, score scale 1-4",2
same,course of the neurological disease and mortality,[1]; treatment of adult mice with BRAF^V600E mosaicism,slows the course of the neurological disease and reduces its mortality
